Assay results: PMC3855667 (Biochemistry, 2013)

Target: EmrD (Escherichia coli, UniProt P31442)
Test: fluorescence anisotropy titration with EmrD
Assay type: binding

Sequence of EmrD (P31442 whole entry): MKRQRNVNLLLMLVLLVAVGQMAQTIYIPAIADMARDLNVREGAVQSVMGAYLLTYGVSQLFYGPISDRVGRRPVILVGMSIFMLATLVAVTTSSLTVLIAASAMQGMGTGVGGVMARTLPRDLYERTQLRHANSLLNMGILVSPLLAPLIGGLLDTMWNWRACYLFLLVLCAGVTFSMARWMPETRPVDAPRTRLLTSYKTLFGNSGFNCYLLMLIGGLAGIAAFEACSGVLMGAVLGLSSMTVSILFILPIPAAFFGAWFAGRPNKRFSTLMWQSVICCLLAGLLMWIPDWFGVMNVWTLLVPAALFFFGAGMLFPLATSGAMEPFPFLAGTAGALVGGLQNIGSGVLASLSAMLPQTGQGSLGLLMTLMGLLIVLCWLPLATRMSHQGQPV

Compound `COc1cccc2c1C(=O)c1c(O)c3c(c(O)c1C2=O)C[C@@](O)(C(=O)CO)C[C@@H]3O[C@H]1C[C@H](N)[C@H](O)[C@H](C)O1` [doxorubicin] has a Kd of about 7 µM.
